Key:
Type in all cases: in vivo
Conditions in all cases: CQC-M 0
SASKR = experiment: Postemergence herbicidal activity, greenhouse, visual injury: SASKR
Experimental: (§1) Evaluation of Postemergence Herbicidal Safening in Cereal Crops
(§2) Seeds of the desired test plant species were planted in Sun Gro MetroMix® 306 planting mixture, which typically has a pH of 6.0 to 6.8 and an organic matter content of about 30 percent, in plastic pots with a surface area of 103.2 square centimeters (cm^2). When required to ensure good germination and healthy plants, a fungicide treatment and/or other chemical or physical treatment was applied. The plants were grown for 7-36 days (d) in a greenhouse with an approximate 14-hour (h) photoperiod which was maintained at about 18° C. during the day and 17° C. during the night. Nutrients and water were added on a regular basis and supplemental lighting was provided with overhead metal halide 1000-Watt lamps as necessary. The plants were employed for testing when they reached the second or third true leaf stage.
(§3) Treatments consisted of the acids or esters of compounds 1-10 and cloquintocet-mexyl (CQC-M), fenchlorazole-ethyl, mefenpyr-diethyl alone and in combination. Weighed amounts of acid or methyl esters of the compounds of formula (I) were dissolved in a volume of 97:3 v/v acetone/dimethylsulfoxide (DMSO) to obtain concentrated solutions. […] The concentrated solutions of the test compound were diluted with the addition of an aqueous mixture containing acetone, water, isopropyl alcohol, DMSO, Agri-Dex crop oil concentrate, and Triton® X-77 surfactant in a 64.7:26.0:6.7:2.0:0.7:0.01 v/v ratio. Test compounds were diluted to the appropriate application rate with a dilution solution which was prepared by mixing the appropriate volume of 97:3 v/v acetone/DMSO and the appropriate volume of an aqueous mixture containing acetone, water, isopropyl alcohol, DMSO, Agri-Dex crop oil concentrate, and Triton® X-77 surfactant in a 64.7:26.0:6.7:2.0:0.7:0.01 v/v ratio. Compound requirements are based upon a 12 mL application volume at a rate of 187 liters per hectare (L/ha). The concentrated solutions of the safener were prepared following the same procedure. Weighed amounts of safener were dissolved in a volume of 97:3 v/v acetone/DMSO to obtain concentrated safener solutions.
(§4) Spray solutions of the herbicide safener and test compound mixtures were prepared by adding the concentrated solutions to the appropriate amount of dilution solution to form 12 mL spray solution with active ingredients in combinations.
(§5) Formulated compounds were applied to the plant material with an overhead Mandel track sprayer equipped with 8002E nozzles calibrated to deliver 187 L/ha over an application area of 0.503 square meters (m^2) at a spray height of 18 inches (43 centimeters (cm)) above average plant canopy. Control plants were sprayed in the same manner with the solvent blank.
(§6) The treated plants and control plants were placed in a greenhouse as described above and watered by sub-irrigation to prevent wash-off of the test compounds. After 20-22 d, the condition of the test plants as compared with that of the control plants was determined visually and scored on a scale of 0 to 100 percent where 0 corresponds to no injury and 100 corresponds to complete kill.
(§7) Colby's equation was used to determine the herbicidal effects expected from the mixtures (Colby, S. R. Calculation of the synergistic and antagonistic response of herbicide combinations. Weeds 1967, 15, 20-22.).
(§8) The following equation was used to calculate the expected activity of mixtures containing two active ingredients, A and B: Expected=A+B−(A×B/100)
(§9) A=observed efficacy of active ingredient A at the same concentration as used in the mixture.
(§10) B=observed efficacy of active ingredient B at the same concentration as used in the mixture.

[1] = system: kochia (Kochia scoparia L; KCHSC); experiment: Postemergence herbicidal activity, greenhouse, visual injury: kochia
Experimental: as §1, §2, §3, §4, §5, §6, §7, §8, §9, §10

CIRAR = experiment: Postemergence herbicidal activity, greenhouse, visual injury: CIRAR
Experimental: as §1, §2, §3, §4, §5, §6, §7, §8, §9, §10

[2] = system: wild mustard (Sinapis arvensis L.; SINAR); experiment: Postemergence herbicidal activity, greenhouse, visual injury: SINAR
[3] = system: spring wheat (Triticum aestivum L; TRZAS); experiment: Postemergence herbicidal safening in cereal crops, greenhouse, visual injury: spring wheat
Experimental: as §1, §2, §3, §4, §5, §6, §7, §8, §9, §10

[4] = system: spring barley (Hordeum vulgare L; HORVS); experiment: Postemergence herbicidal safening in cereal crops, greenhouse, visual injury: spring barley
Experimental: as §1, §2, §3, §4, §5, §6, §7, §8, §9, §10

MATCH = experiment: Postemergence herbicidal activity, greenhouse, visual injury: MATCH
Experimental: as §1, §2, §3, §4, §5, §6, §7, §8, §9, §10

[5] = system: wild pansy (Viola tricolor; VIOTR); experiment: Postemergence herbicidal activity, greenhouse, visual injury: VIOTR
[6] = system: purple deadnettle (Lamium purpureum L; LAMPU); experiment: Postemergence herbicidal activity, greenhouse, visual injury: purple deadnettle
Experimental: as §1, §2, §3, §4, §5, §6, §7, §8, §9, §10

[7] = system: corn poppy (Papaver rhoeas L; PAPRH); experiment: Postemergence herbicidal activity, greenhouse, visual injury: corn poppy
Experimental: as §1, §2, §3, §4, §5, §6, §7, §8, §9, §10

[8] = system: bird's-eye speedwell (Veronica persica L; VERPE); experiment: Postemergence herbicidal activity, greenhouse, visual injury: bird's-eye speedwell
Experimental: as §1, §2, §3, §4, §5, §6, §7, §8, §9, §10

COc1c(N)nc(-c2ccc(Cl)c(F)c2F)nc1C(=O)O [Compound 10, 6-amino-2-(4-chloro-2,3-difluorophenyl)-5-methoxypyrimidine-4-carboxylic acid]
SASKR Ob (Observed values, % control) (SASKR; Compound 10 8.75 g ae/ha): 85% | SASKR Ob (Observed values, % control) (SASKR; Compound 10 17.5 g ae/ha): 87% | SASKR Ob (Observed values, % control) (SASKR; Compound 10 35 g ae/ha): 90% | SASKR Ob (Observed values, % control) (SASKR; Compound 10 70 g ae/ha): 93% | SASKR Ob (Observed values, % control) (SASKR; Compound 10 140 g ae/ha): 95% | KCHSC Ob (Observed values, % control) ([1]; Compound 10 8.75 g ae/ha): 98% | KCHSC Ob (Observed values, % control) ([1]; Compound 10 17.5 g ae/ha): 98% | KCHSC Ob (Observed values, % control) ([1]; Compound 10 35 g ae/ha): 100% | KCHSC Ob (Observed values, % control) ([1]; Compound 10 70 g ae/ha): 100% | KCHSC Ob (Observed values, % control) ([1]; Compound 10 140 g ae/ha): 100% | CIRAR Ob (Observed values, % control) (CIRAR; Compound 10 8.75 g ae/ha): 80% | CIRAR Ob (Observed values, % control) (CIRAR; Compound 10 17.5 g ae/ha): 85% | CIRAR Ob (Observed values, % control) (CIRAR; Compound 10 35 g ae/ha): 90% | CIRAR Ob (Observed values, % control) (CIRAR; Compound 10 70 g ae/ha): 90% | CIRAR Ob (Observed values, % control) (CIRAR; Compound 10 140 g ae/ha): 100% | SINAR Ob (Observed values, % control) ([2]; Compound 10 8.75 g ae/ha): 100% | SINAR Ob (Observed values, % control) ([2]; Compound 10 17.5 g ae/ha): 100% | SINAR Ob (Observed values, % control) ([2]; Compound 10 35 g ae/ha): 100% | SINAR Ob (Observed values, % control) ([2]; Compound 10 70 g ae/ha): 100% | SINAR Ob (Observed values, % control) ([2]; Compound 10 140 g ae/ha): 100% | TRZAS Ob (Observed values, % control) ([3]; Compound 10 8.75 g ae/ha): 45% | TRZAS Ob (Observed values, % control) ([3]; Compound 10 17.5 g ae/ha): 55% | TRZAS Ob (Observed values, % control) ([3]; Compound 10 35 g ae/ha): 65% | TRZAS Ob (Observed values, % control) ([3]; Compound 10 70 g ae/ha): 70% | TRZAS Ob (Observed values, % control) ([3]; Compound 10 140 g ae/ha): 75% | HORVS Ob (Observed values, % control) ([4]; Compound 10 8.75 g ae/ha): 25% | HORVS Ob (Observed values, % control) ([4]; Compound 10 17.5 g ae/ha): 30% | HORVS Ob (Observed values, % control) ([4]; Compound 10 35 g ae/ha): 60% | HORVS Ob (Observed values, % control) ([4]; Compound 10 70 g ae/ha): 75% | HORVS Ob (Observed values, % control) ([4]; Compound 10 140 g ae/ha): 85% | MATCH Ob (Observed values, % control) (MATCH; Compound 10 8.75 g ae/ha): 70% | MATCH Ob (Observed values, % control) (MATCH; Compound 10 17.5 g ae/ha): 90% | MATCH Ob (Observed values, % control) (MATCH; Compound 10 35 g ae/ha): 93% | MATCH Ob (Observed values, % control) (MATCH; Compound 10 70 g ae/ha): 95% | MATCH Ob (Observed values, % control) (MATCH; Compound 10 140 g ae/ha): 100% | VIOTR Ob (Observed values, % control) ([5]; Compound 10 8.75 g ae/ha): 70% | VIOTR Ob (Observed values, % control) ([5]; Compound 10 17.5 g ae/ha): 75% | VIOTR Ob (Observed values, % control) ([5]; Compound 10 35 g ae/ha): 85% | VIOTR Ob (Observed values, % control) ([5]; Compound 10 70 g ae/ha): 93% | VIOTR Ob (Observed values, % control) ([5]; Compound 10 140 g ae/ha): 97% | LAMPU Ob (Observed values, % control) ([6]; Compound 10 8.75 g ae/ha): 95% | LAMPU Ob (Observed values, % control) ([6]; Compound 10 17.5 g ae/ha): 95% | LAMPU Ob (Observed values, % control) ([6]; Compound 10 35 g ae/ha): 100% | LAMPU Ob (Observed values, % control) ([6]; Compound 10 70 g ae/ha): 100% | LAMPU Ob (Observed values, % control) ([6]; Compound 10 140 g ae/ha): 100% | PAPRH Ob (Observed values, % control) ([7]; Compound 10 8.75 g ae/ha): 100% | PAPRH Ob (Observed values, % control) ([7]; Compound 10 17.5 g ae/ha): 100% | PAPRH Ob (Observed values, % control) ([7]; Compound 10 35 g ae/ha): 100% | PAPRH Ob (Observed values, % control) ([7]; Compound 10 70 g ae/ha): 100% | PAPRH Ob (Observed values, % control) ([7]; Compound 10 140 g ae/ha): 100% | VERPE Ob (Observed values, % control) ([8]; Compound 10 8.75 g ae/ha): 93% | VERPE Ob (Observed values, % control) ([8]; Compound 10 17.5 g ae/ha): 97% | VERPE Ob (Observed values, % control) ([8]; Compound 10 35 g ae/ha): 100% | VERPE Ob (Observed values, % control) ([8]; Compound 10 70 g ae/ha): 100% | VERPE Ob (Observed values, % control) ([8]; Compound 10 140 g ae/ha): 100%

Source: patent US9408387B2, “Safening 6-amino-2-(substituted phenyl)-5-substituted-4-pyrimidinecarboxylate herbicide injury on cereal crops” (Dow AgroSciences LLC, priority 2009, dated 2016)
